Results: patent publication US20250011881A1, “MYC-HSF1 DUAL AMPLIFICATION AS A BIOMARKER FOR CANCER TREATMENT” (The Trustees of Indiana University, priority 2023, published 2025)
“And” between values parts separate entries of the source, which are not always exact repeats. Identical values can stand only once. Counter-ions that a name gives are not always drawn. Like-named read-outs stand apart in the source and are kept apart here.

Tested on: ovarian cancer cells with (OVCAR8, OVCAR4) or without (OVSAHO, CAOV3) MYC-HSF1 amplification
Assay: Epigenetic inhibitor drug screen, cell viability (Cell Titer Blue)
Format: cell-based
[1] = 10 uM, 48 hrs, average relative cell viability (vs 1% DMSO) of non-amplified cells (OVSAHO, CAOV3) minus that of MYC-HSF1 amplified cells (OVCAR8, OVCAR4), positive = greater response in amplified cells
[2] = 10 uM, 48 hrs, average relative cell viability (vs 1% DMSO) of non-amplified cells (OVSAHO, CAOV3) minus that of MYC-HSF1 amplified cells (OVCAR8, OVCAR4), positive = greater response in amplified cells, 10 µM

SMILES	Non Amp - AMP (POC) 10 uM [1] [POC]	also measured
Cc1csc(-c2nnc(Nc3ccc(Oc4ncccc4-c4ccnc(N)n4)cc3)c3ccccc23)c1 [AMG-900]	4.126	–
O=C(Nc1ccc2c(O)cc(S(=O)(=O)O)cc2c1)Nc1ccc2c(O)cc(S(=O)(=O)O)cc2c1 [AMI-1]	–	Non Amp - AMP (POC) 10 uM [2]: 19.64 POC and 18.34 POC
CC(C)[C@H](C(=O)Nc1ccc(C(=O)NO)cc1)c1ccccc1 [AR-42 (OSU-HDAC42)]	−6.14	–
O=C(Nc1c[nH]nc1-c1nc2ccc(CN3CCOCC3)cc2[nH]1)NC1CC1 [AT9283]	−1.133	–
N[C@@H]1CCCN(c2c(/C=C3\SC(=O)NC3=O)cccc2-c2ccccc2)C1 [AZD1208]	10.38	–
Cc1cc(Nc2nc(N[C@@H](C)c3ncc(F)cn3)ncc2Cl)[nH]n1 [AZD1480]	0.4361	–
COC1CCN(C(=O)c2cc(Cc3n[nH]c(=O)c4ccccc34)ccc2F)CC1 [AZD2461]	9.593	–
COc1nnc2ccc(N3CCC(c4ccc(OCCN5CCN(C)C(=O)[C@H]5C)cc4)CC3)nn12 [AZD 5153]	11.52	–
CCN(CC)Cc1cc(Nc2ccnc3cc(Cl)ccc23)ccc1O [Amodiaquine dihydrochloride dihydrate]	−0.1196	–
CCCCCCCCCCCCCCCc1cccc(O)c1C(=O)O [Anacardic acid]	–	Non Amp - AMP (POC) 10 uM [2]: 17.46 POC; Non Amp - AMP (POC) 10 uM (10 uM, 48 hrs, average relative cell viability (vs 1% DMSO) of non-amplified cells (OVSAHO, CAOV3) minus that of MYC-HSF1 amplified cells (OVCAR8, OVCAR4), positive = greater response in amplified cells, listed as Anacardic Acid, 10 µM): 5.093 POC
CCC(=O)CCCCC[C@@H]1NC(=O)[C@H]2CCCCN2C(=O)[C@H]([C@@H](C)CC)NC(=O)[C@H](Cc2cn(OC)c3ccccc23)NC1=O [Apicidin]	–	Non Amp - AMP (POC) 10 uM: 45.97 POC
CCN1CCN(C(=O)Cc2ccc(Nc3ncc(F)c(Nc4ccc(C(=O)Nc5ccccc5Cl)cc4)n3)cc2)CC1 [Aurora A Inhibitor I]	–	Non Amp - AMP (POC) 10 uM: 8.339 POC
O=C(Nc1cccc(Nc2nccc(Nc3cccc(C(F)(F)F)c3)n2)c1)C1CC1 [Aurora Kinase Inhibitor III]	–	Non Amp - AMP (POC) 10 uM: −0.3226 POC
Cc1cc(-c2nc(-c3ccc(OC(F)(F)F)cc3)no2)nn1Cc1ccnc(N2CCN(C3CC3)CC2)c1 [BAY 87-2243]	11.79	–
Cn1cc(CCn2cnc(-c3cnn(C)c3)c2-c2ccc(C#N)cc2)cn1 [BAZ2-ICR]	13.57	–
Nc1ccccc1NC(=O)c1cnccn1 [BG45]	25.74	–
CC[C@@H]1C(=O)N(C)c2cnc(Nc3ccc(C(=O)NC4CCN(C)CC4)cc3OC)nc2N1C1CCCC1 [BI-2536]	–	Non Amp - AMP (POC) 10 uM [2]: 15.69 POC; Non Amp - AMP (POC) 10 uM (10 uM, 48 hrs, average relative cell viability (vs 1% DMSO) of non-amplified cells (OVSAHO, CAOV3) minus that of MYC-HSF1 amplified cells (OVCAR8, OVCAR4), positive = greater response in amplified cells, listed as BI 2536, 10 µM): −3.682 POC
COc1cc(-c2cn(C)c(=O)c3cnccc23)cc(OC)c1CN(C)C [BI-7273]	−8.336	–
COc1cc(-c2cn(C)c(=O)c3cnccc23)c(OC)cc1CN(C)C [BI-9564]	11	–
COc1cc2nc(N3CCCN(C)CC3)nc(NC3CCN(Cc4ccccc4)CC3)c2cc1OC [BIX 01294]	−4.372	–
Nc1ccccc1NC(=O)CCCCCCC(=O)Nc1ccccc1 [BML-210]	–	Non Amp - AMP (POC) 10 uM [2]: 30.7 POC; Non Amp - AMP (POC) 10 uM (10 uM, 48 hrs, average relative cell viability (vs 1% DMSO) of non-amplified cells (OVSAHO, CAOV3) minus that of MYC-HSF1 amplified cells (OVCAR8, OVCAR4), positive = greater response in amplified cells, listed as BML-210(CAY10433), 10 µM): 14.33 POC
CCOC(=O)C1=CN(Cc2ccccc2)C=C(C(=O)OCC)C1c1ccccc1 [BML-278]	4.191	–
Cn1ncnc1[C@H]1c2n[nH]c(=O)c3cc(F)cc(c23)N[C@@H]1c1ccc(F)cc1 [BMN 673]	−11.28	–
Cn1ncnc1C1c2n[nH]c(=O)c3cc(F)cc(c23)NC1c1ccc(F)cc1 (stereo not drawn) [BMN-673 8R, 9S]	−2.489	–
Cc1ccc2nc(NCCN)c3ncc(C)n3c2c1 [BMS-345541 (free base)]	19.27	–
CCn1c(C(=O)N(C2CC2)C2CC2)cc2c3c(ncn3C)c(Nc3cc(C)n(C)n3)nc21 [BMS-911543]	1.85	–
O=C(NO)c1cccc(C(=O)NCCc2ccccc2)c1 [BRD73954]	10.33	–
CCOC(=O)c1ccc(NC(=O)O[C@H]2[C@H](OC(=O)Nc3ccc4c(c3)OCO4)[C@@H](OC(=O)Nc3ccc4c(c3)OCO4)[C@@H](OC)O[C@@H]2CO)cc1 [BRD 7552]	−0.1565	–
CC1(C)C(=O)N=C2C1=C(O)C(=O)c1ccccc12 [BVT 948]	22.87	–
CCN(CCO)CCCOc1ccc2c(Nc3cc(CC(=O)Nc4cccc(F)c4)[nH]n3)ncnc2c1 [Barasertib (AZD1152-HQPA), Barasertib]	−16.49	–
